# Experimental data as given in patent US20230087118A1, “IMIDAZO[1,2-a][sequence] DERIVATIVES AND THEIR USE IN THE TREATMENT OF DISEASE” (priority 2019, published 2023).
# Where a name gives a salt, the structure may show the parent alone.
# Target: T1, IRAK4 (Homo sapiens, UniProt Q9NWZ3)
# T1 sequence (Q9NWZ3 1-460): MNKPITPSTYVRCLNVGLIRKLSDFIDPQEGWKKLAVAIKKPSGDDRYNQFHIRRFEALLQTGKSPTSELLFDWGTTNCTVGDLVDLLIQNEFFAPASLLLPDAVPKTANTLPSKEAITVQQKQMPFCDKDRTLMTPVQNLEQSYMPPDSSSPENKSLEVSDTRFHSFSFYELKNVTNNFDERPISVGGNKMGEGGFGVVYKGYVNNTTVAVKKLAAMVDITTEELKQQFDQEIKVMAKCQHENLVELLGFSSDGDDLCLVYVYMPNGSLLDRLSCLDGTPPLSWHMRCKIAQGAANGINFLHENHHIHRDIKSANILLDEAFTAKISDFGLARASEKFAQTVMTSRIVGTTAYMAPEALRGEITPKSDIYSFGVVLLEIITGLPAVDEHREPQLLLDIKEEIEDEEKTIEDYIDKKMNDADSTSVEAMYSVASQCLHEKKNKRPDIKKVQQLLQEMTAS
# Assay: biochemical
# Conditions: not given
row,Structure (SMILES),IC50
1,"CC(C)Oc1nc2nc(C34COC(C)(C3)C4)cn2cc1C(=O)Nc1cccc(-c2cnn(C)c2)n1 [Example 413, 7-Isopropoxy-N-(6-(1-methyl-1H-pyrazol-4-yl)pyridin-2-yl)-2-(1-methyl-2-oxabicyclo[2.1.1]hexan-4-yl)imidazo[1,2-a]pyrimidine-6-carboxamide]",0.0001 µM
2,"CC(C)Oc1cc2nc(C34CCC(C3)OC4)cn2cc1C(=O)Nc1cnn2cccnc12 (centres unmarked) [Example 416, 2-(2-Oxabicyclo[2.2.1]heptan-4-yl)-7-isopropoxy-N-(pyrazolo[1,5-a]pyrimidin-3-yl)imidazo[1,2-a]pyridine-6-carboxamide]",0.0006 µM
3,"CC12CCC(c3cn4cc(C(=O)Nc5ccn(CC(F)F)n5)c(OC5CCC5)cc4n3)(CO1)C2 (centres unmarked) [Example 543, 7-Cyclobutoxy-N-(1-(2,2-difluoroethyl)-1H-pyrazol-3-yl)-2-(1-methyl-2-oxabicyclo[2.2.1]heptan-4-yl)imidazo[1,2-a]pyridine-6-carboxamide]",0.0044 µM
4,"CC(C)Oc1cc2nc(C34CCC(C)(C3)OC4)cn2cc1C(=O)Nc1nc(C(F)F)cs1 (centres unmarked) [Example 516, N-(4-(difluoromethyl)thiazol-2-yl)-7-isopropoxy-2-(1-methyl-2-oxabicyclo[2.2.1]heptan-4-yl)imidazo[1,2-a]pyridine-6-carboxamide]",0.0015 µM
5,COCCn1ccc(NC(=O)c2cn3cc(C4C5COCC54)nc3cn2)n1 (centres unmarked) [Example 84],7.51 µM
6,"CC(C)Oc1cc2nc(C34CCC(C)(C3)OC4)cn2cc1C(=O)Nc1ccn(C)n1 (centres unmarked) [Example 414, 7-Isopropoxy-N-(1-methyl-1H-pyrazol-3-yl)-2-(1-methyl-2-oxabicyclo[2.2.1]heptan-4-yl)imidazo[1,2-a]pyridine-6-carboxamide]",0.0033 µM
7,CC12CCC(c3cn4cc(C(=O)Nc5cnn6cc(F)cnc56)c(OC5CC5)cc4n3)(CO1)C2 (centres unmarked) [Example 556],0.0005 µM
8,"CC(C)Oc1cc(C(=O)Nc2cccc(C(F)F)n2)cn2cc(C3CCCOC3)nc12 (centres unmarked) [Example 394, N-(6-(difluoromethyl)pyridin-2-yl)-8-isopropoxy-2-(tetrahydro-2H-pyran-3-yl)imidazo[1,2-a]pyridine-6-carboxamide]",0.0057 µM
9,"CC12CC(c3cn4cc(C(=O)Nc5cnn6cccnc56)nc(OC5CCC5)c4n3)(CO1)C2 [Example 349, 8-Cyclobutoxy-2-(1-methyl-2-oxabicyclo[2.1.1]hexan-4-yl)-N-(pyrazolo[1,5-a]pyrimidin-3-yl)imidazo[1,2-a]pyrazine-6-carboxamide]",0.0053 µM
10,"CC(C)Oc1cc2nc(C34CCC(C3)OC4)cn2cc1C(=O)Nc1ccn(C)n1 (centres unmarked) [Example 415, 2-(2-Oxabicyclo[2.2.1]heptan-4-yl)-7-isopropoxy-N-(1-methyl-1H-pyrazol-3-yl)imidazo[1,2-a]pyridine-6-carboxamide]",0.0085 µM
11,"CCc1ncsc1NC(=O)c1cn2cc(C34CCC(C)(C3)OC4)nc2cc1OC(C)C (centres unmarked) [Example 511, N-(4-ethylthiazol-5-yl)-7-isopropoxy-2-(1-methyl-2-oxabicyclo[2.2.1]heptan-4-yl)imidazo[1,2-a]pyridine-6-carboxamide]",0.0042 µM
12,"Cc1cccc(NC(=O)c2cn3cc(C45COC(C)(C4)C5)nc3nc2OC(C)C)n1 [Example 355, 7-Isopropoxy-2-(1-methyl-2-oxabicyclo[2.1.1]hexan-4-yl)-N-(6-methylpyridin-2-yl)imidazo[1,2-a]pyrimidine-6-carboxamide]",0.0016 µM
13,"COc1cccc(NC(=O)c2cn3cc(C4CC5CCC(C4)O5)nc3cc2OC(C)C)n1 (centres unmarked) [Example 94, 2-(8-oxabicyclo[3.2.1]octan-3-yl)-7-isopropoxy-N-(6-methoxypyridin-2-yl)imidazo[1,2-a]pyridine-6-carboxamide]",0.0178 µM
14,"CC(C)Oc1cc2nc(C34CCC(C)(CC3)OC4)cn2cc1C(=O)Nc1cnn2cccnc12 [Example 572, 7-Isopropoxy-2-(1-methyl-2-oxabicyclo[2.2.2]octan-4-yl)-N-(pyrazolo[1,5-a]pyrimidin-3-yl)imidazo[1,2-a]pyridine-6-carboxamide]",0.0004 µM
15,COc1cc2nc(C3CCOCC3)cn2cc1C(=O)Nc1cccc(C)c1F [Example 110],0.0082 µM
16,"COc1cc2nc(C3CCOCC3)cn2cc1C(=O)Nc1cccn2nccc12 [Example 479, 7-Methoxy-N-(pyrazolo[1,5-a]pyridin-4-yl)-2-(tetrahydro-2H-pyran-4-yl)imidazo[1,2-a]pyridine-6-carboxamide]",0.0092 µM
17,"CC(C)Oc1c(C(=O)Nc2cccc(-c3cnn(C)c3)n2)cn2cc(C34COC(C)(C3)C4)nc2c1F [Example 393, 8-Fluoro-7-isopropoxy-N-(6-(1-methyl-1H-pyrazol-4-yl)pyridin-2-yl)-2-(1-methyl-2-oxabicyclo[2.1.1]hexan-4-yl)imidazo[1,2-a]pyridine-6-carboxamide]",0.0001 µM
18,"CC12CC(c3cn4cc(C(=O)Nc5cccn(C(F)F)c5=O)c(OC5CCOCC5)cc4n3)(CO1)C2 [Example 454, N-(1-(difluoromethyl)-2-oxo-1,2-dihydropyridin-3-yl)-2-(1-methyl-2-oxabicyclo[2.1.1]hexan-4-yl)-7-((tetrahydro-2H-pyran-4-yl)oxy)imidazo[1,2-a]pyridine-6-carboxamide]",0.0024 µM
19,"CCOc1nc(C(=O)Nc2ccn(CC3CC3)n2)cn2cc(C34CCC(C)(C3)OC4)nc12 (centres unmarked) [Example 282, N-(1-(cyclopropylmethyl)-1H-pyrazol-3-yl)-8-ethoxy-2-(1-methyl-2-oxabicyclo[2.2.1]heptan-4-yl)imidazo[1,2-a]pyrazine-6-carboxamide]",0.0087 µM
20,"C[C@@H](Oc1cc2nc(C34COC(C)(C3)C4)cn2cc1C(=O)Nc1cccc(C(F)F)n1)C(F)(F)F (single isomer, unassigned) [Example 618]",0.0006 µM
21,COc1cc2nc(C34CC(C)(CO3)C4)cn2cc1C(=O)Nc1ccccn1 [Example 4],0.235 µM
22,"CC(C)Oc1cc2nc(C3COCCO3)cn2cc1C(=O)Nc1cccc(C(F)F)n1 (centres unmarked) [Example 330, N-(6-(difluoromethyl)pyridin-2-yl)-2-(1,4-dioxan-2-yl)-7-isopropoxy-imidazo[1,2-a]pyridine-6-carboxamide]",0.0002 µM

# Same assay, conditions: IRAK4 Biochemical Assay (1 mM ATP, 2 h) IC50 (μM), 1 mM ATP, 2 h, 100 pM IRAK4
row,Structure (SMILES),IC50
1,"CCOc1nc(C(=O)Nc2cc(F)cn(C)c2=O)cn2cc(C34CCC(C)(C3)OC4)nc12 (centres unmarked) [Example 277, 8-Ethoxy-N-(5-fluoro-1-methyl-2-oxo-1,2-dihydropyridin-3-yl)-2-(1-methyl-2-oxabicyclo[2.2.1]heptan-4-yl)imidazo[1,2-a]pyrazine-6-carboxamide trifluoroacetate]",0.0061 µM
2,"CCOc1nc(C(=O)Nc2cccc(C(F)F)n2)cn2cc(C3CCOCC3)nc12 [Example 207, N-[6-(difluoromethyl)-2-pyridyl]-8-ethoxy-2-tetrahydropyran-4-ylimidazo[1,2-a]pyrazine-6-carboxamide trifluoroacetate]",0.0147 µM
3,"COc1ncccc1NC(=O)c1cn2c(F)c(C34COC(C)(C3)C4)nc2cc1OC(C)C [Example 325, 3-Fluoro-7-isopropoxy-N-(2-methoxypyridin-3-yl)-2-(1-methyl-2-oxa-bicyclo[2.1.1]hexan-4-yl)imidazo[1,2-a]pyridine-6-carboxamide trifluoroacetate]",0.0086 µM
4,COc1cc2nc(C34COC(CF)(C3)C4)cn2cc1C(=O)Nc1ccccn1 [Example 5],0.0721 µM
